Results on 21 compounds are retold here after ChEMBL document CHEMBL4270567, “Multi-target-directed ligands for treating Alzheimer's disease: Butyrylcholinesterase inhibitors displaying antioxidant and neuroprotective activities” (Eur J Med Chem, 2018).

Calls of active or inactive are those of the source. The calls are words filed in the database; no cut-off is given here.

Series [1] has as its target T1, Cholinesterase (Homo sapiens, UniProt P06276).
Description: Inhibition of human BChE using butyrylthiocholine iodide as substrate preincubated for 5 mins followed by substrate addition and measured for 1 min by Ellman's assay
The target of series [2] is Acetylcholinesterase (AChE) (Homo sapiens, UniProt P22303). In words: in vitro. The following applies: human AChE enzyme, probe acetylthiocholine iodide.
Description: Inhibition of human AChE using acetylthiocholine iodide as substrate assessed as residual activity at 10 uM preincubated for 5 mins followed by substrate addition and measured for 1 min by Ellman's assay relative to control
A short description of series [3]: Binding affinity to Cu2+ assessed as decrease in hydroxyl radical formation at 40 uM by CCA ascorbate assay.
A short description of series [4]: Metal chelating activity of the compound assessed as Mg2+-compound complex formation at 30 uM after 5 mins by UV-vis spectrophotometric analysis.
Series [5] deals with SH-SY5Y. The series can be described thus: Inhibition of H2O2-induced ROS generation in human SH-SY5Y cells at 5 uM preincubated for 30 mins followed by H2O2 addition and measured after 90 mins by DCFH-DA staining-based fluorescence assay. It is filed as functional, cell-based.
A short description of series [6]: Cytotoxicity against human SH-SY5Y cells after 48 hrs by MTS assay. Particulars: read-out: LD50. It is filed as cell-based. In general terms: Formazan colour is commonly taken as a measure of viable cells.
Series [7] is described as follows: Metal chelating activity of the compound assessed as Fe2+-compound complex formation at 30 uM after 5 mins by UV-vis spectrophotometric analysis.
The nature of series [8]: Metal chelating activity of the compound assessed as Mn2+-compound complex formation at 30 uM after 5 mins by UV-vis spectrophotometric analysis.
Series [9] is described as follows: Metal chelating activity of the compound assessed as Zn2+-compound complex formation at 30 uM after 5 mins by UV-vis spectrophotometric analysis.
Series [10] in a line: Metal chelating activity of the compound assessed as Ca2+-compound complex formation at 30 uM after 5 mins by UV-vis spectrophotometric analysis.
Series [11] in a line: Permeability across basolateral to apical side in human Caco2 cells at 100 uM after 20 mins by HPLC-UV analysis. It counts as ADME, cell-based. The following applies: Caco-2.
The test system of series [12] is SH-SY5Y. In words: Neuroprotection activity against amyloid beta (1 to 42)-induced toxicity in human SH-SY5Y cells at 1 uM preincubated with amyloid beta (1 to 42) for 24 hrs followed by cell addition and measured after 48 hrs by MTS assay. It counts as functional, cell-based.
Series [13] can be described thus: Permeability across apical to basolateral side in human Caco2 cells at 100 uM after 20 mins by HPLC-UV analysis. It counts as ADME, cell-based. Particulars: Caco-2. (Caco-2 cells form a polarised layer with tight junctions and transporters.)
Series [14] can be described thus: Metal chelating activity of the compound assessed as Al3+-compound complex formation at 30 uM after 5 mins by UV-vis spectrophotometric analysis.
Series [15] can be described thus: Metal chelating activity of the compound assessed as Ni2+-compound complex formation at 30 uM after 5 mins by UV-vis spectrophotometric analysis.
Series [16] is described as follows: Metal chelating activity of the compound assessed as Co2+-compound complex formation at 30 uM after 5 mins by UV-vis spectrophotometric analysis.
A short description of series [17]: Metal chelating activity of the compound assessed as Cu2+-compound complex formation at 30 uM after 5 mins by UV-vis spectrophotometric analysis.
The target in series [18] is T1, Cholinesterase. The series can be described thus: Inhibition of human recombinant BChE using butyrylthiocholine as substrate preincubated for 300 secs followed by substrate addition and measured for 1 min by Ellman's assay. For orientation: In Ellman's method for cholinesterases, released thiocholine reacts with DTNB.
The target in series [19] is T1, Cholinesterase. In words: Competitive inhibition of human BChE using butyrylthiocholine iodide as substrate preincubated for 5 mins followed by substrate addition and measured for 1 min by Lineweaver Burk plot analysis.
The nature of series [20]: Efflux ratio of permeability from basolateral to apical over apical to basolateral side in human Caco2 cells at 100 uM after 20 mins by HPLC-UV analysis. It counts as ADME, cell-based. The following applies: Caco-2.
The test system of the next series is human recombinant BChE. In words: Selectivity index, ratio of LD50 for human SH-SY5Y cells to IC50 for human recombinant BChE. It counts as toxicity. Particulars: read-out: Ratio LD50/IC50.

T1 sequence (P06276 whole entry): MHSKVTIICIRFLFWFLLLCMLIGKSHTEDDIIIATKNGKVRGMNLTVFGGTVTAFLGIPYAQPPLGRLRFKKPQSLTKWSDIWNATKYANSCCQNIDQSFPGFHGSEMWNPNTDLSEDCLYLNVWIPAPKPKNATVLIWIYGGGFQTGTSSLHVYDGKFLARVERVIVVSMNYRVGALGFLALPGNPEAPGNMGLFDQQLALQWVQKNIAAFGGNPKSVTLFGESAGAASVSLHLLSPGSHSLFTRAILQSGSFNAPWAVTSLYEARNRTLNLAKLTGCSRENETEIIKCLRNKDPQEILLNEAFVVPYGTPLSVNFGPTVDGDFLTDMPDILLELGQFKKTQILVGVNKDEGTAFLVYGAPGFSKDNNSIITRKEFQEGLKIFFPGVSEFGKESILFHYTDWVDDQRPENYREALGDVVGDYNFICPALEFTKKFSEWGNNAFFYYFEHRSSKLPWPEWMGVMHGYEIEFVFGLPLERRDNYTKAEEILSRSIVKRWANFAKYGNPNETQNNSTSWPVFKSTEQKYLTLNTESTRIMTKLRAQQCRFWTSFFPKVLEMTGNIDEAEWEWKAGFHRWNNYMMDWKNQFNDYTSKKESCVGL
Chain of Acetylcholinesterase (AChE) (P22303 whole entry): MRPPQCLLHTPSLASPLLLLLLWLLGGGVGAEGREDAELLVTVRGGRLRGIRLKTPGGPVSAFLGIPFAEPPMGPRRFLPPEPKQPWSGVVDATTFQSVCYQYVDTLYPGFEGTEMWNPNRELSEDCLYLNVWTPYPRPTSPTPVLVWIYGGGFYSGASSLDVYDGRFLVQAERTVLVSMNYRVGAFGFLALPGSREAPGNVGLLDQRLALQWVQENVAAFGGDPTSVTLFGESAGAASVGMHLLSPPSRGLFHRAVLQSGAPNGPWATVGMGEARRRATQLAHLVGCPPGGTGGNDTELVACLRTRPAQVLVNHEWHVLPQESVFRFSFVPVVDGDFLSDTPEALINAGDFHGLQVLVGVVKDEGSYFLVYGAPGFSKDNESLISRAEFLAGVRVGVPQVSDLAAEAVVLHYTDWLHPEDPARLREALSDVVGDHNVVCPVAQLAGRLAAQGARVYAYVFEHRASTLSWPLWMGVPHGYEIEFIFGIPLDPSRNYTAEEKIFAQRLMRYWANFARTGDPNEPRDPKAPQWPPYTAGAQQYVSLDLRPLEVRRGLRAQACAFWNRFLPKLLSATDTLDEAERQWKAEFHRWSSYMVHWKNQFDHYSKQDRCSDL

One may read the IC50 as the concentration at which inhibition is half-maximal. Consider `CN(C)CCN(CC1CCCN(C2Cc3ccccc3C2)C1)C(=O)c1cccc(O)c1` (racemic), for which half-maximal inhibition against Cholinesterase [1] (IC50) was put at 2490 nM. For the same compound, the activity at 1 min, 10 µM in series [2] is more than 80%.
On the same counts, the results for `CN(C)CCN(CC1CCCN(C2Cc3ccccc3C2)C1)C(=O)c1csc(Nc2ccccn2)n1` (racemic) are 635 nM and more than 80%.
For `CN(C)CCN(CC1CCCN(Cc2csc(Nc3ccccn3)n2)C1)C(=O)c1ccc2ccccc2c1` (racemic) the same measures were 103 nM and more than 80%.
For `CN(C)CCN(CC1CCCN(C2Cc3ccccc3C2)C1)C(=O)c1cc([N+](=O)[O-])c2cccnc2c1O` (racemic), half-maximal inhibition against Cholinesterase [1] (IC50) required 28 nM. For the same compound, the activity at 1 min, 10 µM in series [2] was more than 80%.
A word on the Papp B→A: it is the apparent permeability from the basolateral to the apical side of a cell layer. The term Papp A→B denotes the apparent permeability from the apical to the basolateral side of a cell layer. Consider `CN(C)CCN(CC1CCCN(C2Cc3ccccc3C2)C1)C(=O)c1ccc2cccnc2c1O` (racemic), for which the Activity entry in [3], in series [4], in [7], in series [8], in series [9] and in series [10] was “Active” each time. The Activity entry in series [14], in series [15], in series [16] and in series [17] was “Active” throughout. Besides, the inhibition result in the series with SH-SY5Y [5] is “Active”. Besides, the CC50 at 48 h in [6] worked out at 9550 nM. Moreover, the Papp B→A at 20 min, 100 µM in [11] stood at 22.8 ×10⁻⁶ cm/s. In addition, the Activity result with SH-SY5Y [12] was “inactive”. Also, in series [13], the Papp A→B at 20 min, 100 µM worked out at 15.1 ×10⁻⁶ cm/s. For the same compound, the activity at 1 min, 10 µM in [2] was more than 80%.
With `CC(=O)NC1=NN(C(C)=O)C(C)(c2ccccc2)S1` (centres undefined), the IC50 on Cholinesterase [18] stood at 4.9 nM.
For `COCCN(CC1CCCN(C2Cc3ccccc3C2)C1)C(=O)c1ccc2cccnc2c1O` (racemic), the IC50 against Cholinesterase [1] amounted to 266 nM. Besides, the activity at 1 min, 10 µM in series [2] was more than 80%.
For `CN(C)CCN(CC1CCCN(C2Cc3ccccc3C2)C1)C(=O)c1ccc(O)nc1` (racemic) the same measures were 21000 nM and more than 80%.
With `Oc1cccc2cccnc12`, in [3], the Activity entry is “Active”.
On Cholinesterase [1], `CN(C)CCN(CC1CCCN(Cc2ccc3cccc(O)c3n2)C1)C(=O)c1ccc2ccccc2c1` (racemic) displayed a half-maximal inhibitory concentration (IC50) of 48.1 nM. Also, in series [2], the activity at 1 min, 10 µM is more than 80%.
On Cholinesterase [1], `Cc1c(C)c2c(c(C)c1O)CCC(C)(C(=O)N(CCN(C)C)CC1CCCN(C3Cc4ccccc4C3)C1)O2` (racemic) came in with an IC50 of 6920 nM. This compound also gave an activity at 1 min, 10 µM in [2] of more than 80%.
Take `CN(C)CCN(CC1CCCN(C2Cc3ccccc3C2)C1)C(=O)c1ccc(O)cc1O` (racemic): the IC50 against Cholinesterase [1] amounted to 460 nM. The activity at 1 min, 10 µM in series [2] was more than 80%.
For `CN(C)CCN(CC1CCCN(C2Cc3ccccc3C2)C1)C(=O)c1ccc(O)cc1` (racemic) the same measures were 1790 nM and more than 80%.
With `CN(C)CCN(CC1CCCN(C2Cc3ccccc3C2)C1)C(=O)[C@@H]1N=C(c2ccccc2O)CS1` (mixture of isomers), the IC50 at Cholinesterase [1] is 229 nM. Besides, the activity at 1 min, 10 µM in [2] is 72.9%.
For `CN(C)CCN(CC1CCCN(C2Cc3ccccc3C2)C1)C(=O)/C=C/c1ccc(O)cc1` (racemic) the same measures were 71 nM and more than 80%.
For `CN(C)CCN(CC1CCCN(C2Cc3ccccc3C2)C1)C(=O)c1cn2cccc(O)c2n1` (racemic) the same measures were 135 nM and more than 80%.
For `COc1ccc(C(=O)N(CCN(C)C)CC2CCCN(C3Cc4ccccc4C3)C2)cc1` (racemic) the same measures were 237 nM and more than 80%.
A word on the Ki: it is the equilibrium dissociation constant of an inhibitor or competing ligand from its target. High values mean a looser hold on the target, low ones a stronger hold on the target. Broadly, the efflux ratio is the permeability from basolateral to apical divided by that in the opposite direction, in the common usage. Consider `CN(C)CCN(CC1CCCN(C2Cc3ccccc3C2)C1)C(=O)c1ccc2cccc(O)c2n1` (racemic), for which the Activity result (in series [3]; in series [7]; in [9]; with SH-SY5Y [12]; in [14]; in series [15]) was “Active” in each case. Besides, the Activity entry in series [16] and in series [17] was “Active” throughout. The inhibition result in the series with SH-SY5Y [5] is “Active”. Further, the affinity at Cholinesterase [19] corresponds to a Ki of 1.09 nM. Also, the CC50 at 48 h in series [6] is 9700 nM. On Cholinesterase [1], this compound registered an IC50 of 11.1 nM. Moreover, the Papp B→A at 20 min, 100 µM in [11] is 35.1 ×10⁻⁶ cm/s. The efflux ratio at 20 min, 100 µM in series [20] was found to be 1.6. For the same compound, the selectivity ratio with human recombinant BChE was more than 700. Further, the apparent permeability from apical to basolateral (Papp A→B) at 20 min, 100 µM in series [13] turned out to be 21.5 ×10⁻⁶ cm/s. For the same compound, the activity at 1 min, 10 µM in series [2] stood at 75.8%.
`CN(C)CCN(CC1CCCN(C2Cc3ccccc3C2)C1)C(=O)c1cc(O)c2cccc(O)c2n1` (racemic): the IC50 against Cholinesterase [1] was determined as 19 nM. This compound also had an activity at 1 min, 10 µM in [2] of more than 80%.
On the same counts, the results for `CN(C)CCN(CC1CCCN(C2Cc3ccccc3C2)C1)C(=O)c1ccc2c([N+](=O)[O-])ccc(O)c2n1` (racemic) are 1610 nM and more than 80%.
On the same counts, the results for `CN(C)CCN(CC1CCCN(C2Cc3ccccc3C2)C1)C(=O)c1cc2ccccc2oc1=O` (racemic) are 9.5 nM and more than 80%.
